What was measured:
[1] = target: T1, Sirt2 (α-tubulin Lys40 deacetylation) (Homo sapiens, UniProt Q8IXJ6); assay: Tubulin deacetylation assay in HEK cell lysates with added Sirt2; assay type: biochemical; conditions: 100 μM compound, 1 μg Sirt2
T1 construct: Human gene fragment comprising Sirt2 residues 34-356; His-tag with linker comprising a TEV protease cleavage site (N, cleaved yes); made in house; host or cells: E. coli Rosetta2; the protein was added to HEK 293T cell lysate
T1 sequence (Q8IXJ6 34-356): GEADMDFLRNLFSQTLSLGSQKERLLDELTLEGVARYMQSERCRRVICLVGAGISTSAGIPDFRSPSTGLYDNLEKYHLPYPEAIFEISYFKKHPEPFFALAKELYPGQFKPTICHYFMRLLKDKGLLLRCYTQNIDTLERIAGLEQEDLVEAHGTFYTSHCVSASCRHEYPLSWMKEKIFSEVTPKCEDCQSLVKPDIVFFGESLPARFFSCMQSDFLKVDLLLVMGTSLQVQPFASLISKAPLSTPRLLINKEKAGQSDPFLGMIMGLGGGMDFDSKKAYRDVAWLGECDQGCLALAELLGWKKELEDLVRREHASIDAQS
Experimental: Our novel compounds 3 and 4 are potent and specific Sirt2 inhibitors in vitro, and we next tested the effect of 4 (compound 3 is likely to be sensitive to esterase activity in lysates) on the Sirt2-dependent deacetylation of an in vivo substrate in a physiological environment. The acetylation levels of the Sirt2-deacetylation site Lys40 in α-tubulin [12] were analyzed in HEK cell lysates by using an acetyl-Lys40 specific antibody (Figure 4a). […] Thus, compound 4 is an inhibitor for the physiological α-tubulin deacetylation activity of Sirt2.
HEK 293T cells were grown in DMEM medium (PAN Biotech) supplemented with 10% fetal bovine serum (PAN Biotech) at 37°C and 5% CO2. Cells were harvested, washed with PBS, and resuspended and lysed using hypotonic buffer (10mM Tris-HCl, pH 8.0, 3mM KCl) supplemented with protease inhibitors cocktail. Cell debris was removed by centrifugation (10,000g, 10 minutes) at 4°C, and 50μl reaction were prepared with identical amounts of cell lysate and either 100 μM compound 4, 1 μg Sirt2, or both. All samples further contained the same amount of DMSO (to account for the solvent of the stock of 4) and 25 mM HEPES (pH 7.5; to compensate for the solvent of the NAD^+ stock). […]

Sirt3 = target: T2, Sirt3 (Homo sapiens, UniProt Q9NTG7); assay: Fluor-de-Lys peptide deacetylation assay, Sirt3; assay type: biochemical
T2 construct: Sirt3 residues 114-399; His-tag with linker comprising a TEV protease cleavage site (N); made in house; host or cells: E. coli
T2 sequence (Q9NTG7 114-399): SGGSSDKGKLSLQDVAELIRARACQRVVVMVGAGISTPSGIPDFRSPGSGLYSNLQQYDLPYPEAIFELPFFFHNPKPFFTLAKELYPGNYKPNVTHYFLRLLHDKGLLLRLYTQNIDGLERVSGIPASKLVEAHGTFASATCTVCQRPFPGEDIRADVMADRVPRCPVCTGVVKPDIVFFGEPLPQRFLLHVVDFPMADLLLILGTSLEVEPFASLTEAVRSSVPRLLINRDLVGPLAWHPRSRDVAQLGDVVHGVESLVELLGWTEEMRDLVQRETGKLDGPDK
Summary of the method: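 E. coli-expressed human Sirtuins with 0.5 mM NAD+ and 0.1 mM Fluor-de-Lys peptide: FdL-2 (QPK(acetyl-K)) for Sirt3, FdL-1 (RHK(acetyl-K)) for Sirt5. Compounds at 100 μM final; 30 min at 37 °C, then trypsin developer for 45 min at room temperature.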

HEK cells = assay: Cytotoxicity testing on HEK cells
Sirt6 = target: T3, Sirt6 (Homo sapiens, UniProt Q8N6T7); assay: Fluor-de-Lys peptide deacetylation assay, Sirt6; assay type: biochemical
T3 construct: Sirt6 residues 13-308; His-tag with linker comprising a TEV protease cleavage site (N, cleaved yes); made in house; host or cells: E. coli Rosetta2
Summary of the method: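 Fluor-de-Lys kit run with FdL-1 peptide RHK(acetyl-K), 0.1 mM, plus 0.5 mM NAD+. Compounds at 100 μM final, 30 min at 37 °C, then trypsin developer for 45 min at room temperature.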

T3 sequence (Q8N6T7 13-308): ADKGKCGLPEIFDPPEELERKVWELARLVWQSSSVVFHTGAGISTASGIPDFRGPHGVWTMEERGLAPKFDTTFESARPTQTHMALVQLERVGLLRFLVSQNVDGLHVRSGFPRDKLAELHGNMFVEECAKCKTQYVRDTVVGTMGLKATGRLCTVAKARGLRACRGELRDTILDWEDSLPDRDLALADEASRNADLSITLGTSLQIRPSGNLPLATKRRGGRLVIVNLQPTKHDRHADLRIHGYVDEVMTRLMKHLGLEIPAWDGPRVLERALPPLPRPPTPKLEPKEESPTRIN

## CC12Cc3cnc(-c4ccccc4)nc3CC1CCC1C2CCC2(C)C1CCC2(C)O (stereo not shown) [CSC13, 1,11a,13a-trimethyl-8-phenyl-2,3,3a,3b,4,5,5a,6,11,11a,11b,12,13,13a-tetradecahydro-1H-cyclopenta[5,6]naphtho[1,2-g]quinazolin-1-ol]
[1]
  effect on Sirt2-dependent α-tubulin Lys40 deacetylation: the deacetylation effect was decreased
Sirt3
  Effect on the activity of Sirt3: --- (key: inhibition: significant inhibitory effects (>25% loss of activity); ---: no such effect)
HEK cells
  cytotoxicity: smaller effect
Sirt6
  Effect on the activity of Sirt6: --- (key: inhibition: significant inhibitory effects (>25% loss of activity); ---: no such effect)
